Columns and labels:
[1] = system: K-ras dependent human colon carcinoma (LoVo); assay: in vivo effects against K-ras dependent human colon carcinoma (LoVo); details: 1 mg/kg per dose IP, days 5, 9 and 13; control 0.5% Methocel 0.4% Tween 80
From the text: […] For the compound of example 114, when tested against a K-ras dependent human colon carcinoma (LoVo), the following results were obtained (Table III):

FPTase [2] = molecular target: T1, FPTase (Homo sapiens, UniProt P49354+P49356); assay: in vitro FTase Inhibition Assay, K-Ras used as substrate for farnesylation; type: biochemical; details: Table I
Description: Enzyme test procedure: FPTase inhibition in vitro assay was performed according to James, G. L., Brown, M. S., and Goldstein, J. L., Methods in Enzymology, 1995, 255, 38-46; and Garcia, M. A., et al., J. Biol. Chem., 1993, 268, 18415-18420.
Materials—Purified FPTase (Moomaw, J. F. and Casey, P. J., J. Biol. Chem., 1992, 267, 17438-17443), purified His6-Ras, inhibitor compounds at 10 mg/ml or 10 mM in 100% DMSO, ^3H-FPP (50,000 dpm/pmol) Amersham, TCA/SDS (6%/2%), TCA (6%), Glass fiber filters ([…]), vacuum manifold or 96 well filtration plates.
Methods—1. Dilute FPTase inhibitors from stock solutions to 2.5× in 2.5% DMSO, 10 mM DTT, 0.5% octyl-B-glucoside. 2. Solution #1 is added to FPTase reaction in a volume of […]. 3. Standard reaction mix, […], contains 50 mM Tris (7.5), 10 mM ZnCl2, 3 mM MgCl2, 20 mM KCl, 5 mM DTT, 0.2% octyl-B-glucoside, 1% DMSO, […] His6-Ras, 10 ng FPTase, and various concentrations of FPTase inhibitors. 4. Incubate for 30-90 min at 25° C. 5. Stop reactions with TCA/SDS (6%/2%), hold at 4° C. for 45-60 min. 6. Filter by manifold or 96 well plate, wash filter 3-5× with TCA (6%). 7. Add scintillant to filters, measure ^3H-FPP incorporation into Ras protein.
Analysis of Results—Percent inhibition by test compounds is determined by the following:
(cpm from precipitated Ras with test compounds)−(background cpm)×100=% inhibition.
(cpm from precipitated Ras without test compounds)−(background cpm)

FPTase [3] = molecular target: T1, FPTase; assay: in vitro FTase Inhibition Assay, H-Ras used as substrate for farnesylation; type: biochemical; details: Table I, read-out: IC50 H-Ras*

Row | Compound | IC50 (FPTase [2]) [nM] | IC50 (FPTase [3]) [nM] | also measured
1 | CC[C@]1(O)C[C@H]2CN(CCc3c([nH]c4ccccc34)[C@@](C(=O)OC)(c3cc4c(cc3OC)N(C=O)[C@H]3[C@@](O)(C(=O)OC)[C@H](OC(C)=O)[C@]5(CC)C=CCN6CC[C@]43[C@@H]65)C2)C1 [Vincristine, reference compound] |  |  | % T/C, Day8 [1]: 16%; % T/C, Day 15 [1]: 8%; % T/C, Day 22 [1]: 14%; % T/C, Day 29 [1]: 19%; % T/C, Day 36 [1]: 15%; Mean Tumor Weight, Day8 [1]: 14 mg; Mean Tumor Weight, Day 15 [1]: 24 mg; Mean Tumor Weight, Day 22 [1]: 84 mg; Mean Tumor Weight, Day 29 [1]: 139 mg; Mean Tumor Weight, Day 36 [1]: 194 mg
2 | COc1ccc(S(=O)(=O)C2(CCCC#Cc3cc(NC(=O)OCC(C)C)ccc3C)SC(=O)N(C(=O)OCC(C)C)C2=O)cc1 (centres unmarked) [Example 232, Isobutyl 5-(5-{5-[(isobutoxycarbonyl)-amino]-2-methylphenyl}pent-4-ynyl)-5-[(4-methoxyphenyl)sulfonyl]-2,4-dioxo-1,3-thiazolidine-3-carboxylate] | 40 to 640 | 5 to 10 | 
3 | COc1ccc(S(=O)(=O)C2(CCCC#Cc3ccc(Cl)cc3C)SC(=O)NC2=O)cc1 (centres unmarked) [Example 142, 5-[5-(4-Chloro-2-methylphenyl)pent-4-ynyl]-5-(4-methoxybenzene-sulfonyl)-thiazolidine-2,4-dione] | 40 to 1000 | 17 to 30 | 
4 | COc1ccc(S(=O)(=O)C2(CCCC#Cc3cc(NC(=O)OCc4ccc([N+](=O)[O-])cc4)ccc3C)SC(=O)NC2=O)cc1 (centres unmarked) [Example 176, (3-{5-[5-(4-Methoxybenzenesulfonyl)-2,4-dioxothiazolidin-5-yl]pent-1-ynyl}-4-methylphenyl)carbamic Acid 4-Nitro- Benzyl Ester] | 30 to 320 | 3.2 to 32 | 
5 | 5-[5-(4-Chloro-2-methylphenyl)pent-4-ynyl]-5-(4-trifluoromethoxybenzenesulfonyl)-thiazolidine-2,4-dione [Example 140] | 1000 to 3600 | 150 to 300 | 
6 | COc1ccc(S(=O)(=O)C2(CCCC#Cc3cc(NC(=O)OC(C)(C)C)ccc3C)SC(=O)NC2=O)cc1 (single isomer, unassigned; less polar) [Example 222, Enantiomer of (3-{5-[5-(4-Methoxybenzenesulfonyl)-2,4-dioxothiazolidin-5-yl]pent-1-ynyl}-4-methylphenyl)carbamic Acid tert-Butyl Ester (Less Polar)] | 33 | 3.3 | 

— patent US6605628B1, “Method of using 5-(arysulfonyl)-, 5-(arylsulfanyl)-and 5-(arylsulfanyl)thiazolidine-2,4-diones for inhibition of farnesyl-protein transferase” (Wyeth Holdings Corporation, priority 2001, dated 2003)
